Data set [1] concerns the target T1, MIF produced by THP-1 cells (Homo sapiens, UniProt P14174).
T1 construct: a test cell may express the MIF naturally (e.g., THP-1 cells); endogenous in cells; host or cells: THP-1 cells, LPS-stimulated; conditioned supernatant
T1 sequence (P14174 2-115 limits assumed): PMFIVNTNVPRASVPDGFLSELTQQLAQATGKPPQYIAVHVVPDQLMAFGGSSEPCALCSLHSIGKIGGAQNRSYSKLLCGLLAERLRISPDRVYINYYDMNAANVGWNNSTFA
As to the kind of experiment: THP-1 Cell Assay (THP-1/MIF inhibition, ELISA with anti-MIF monoclonal antibody). The format is cell-based. From the text: The assays may generally be divided into three categories, those being, assays which monitor export; those which monitor effector or small molecule binding, and those that monitor MIF activity. However, it should be noted that combinations of these assays are within the scope of the present application. […] In an alternative, these two assays (i.e., binding and activity assays) may be combined into a singular assay which detects binding of a test compound (e.g., the ability to displace monoclonal antibodies or inhibit their binding) while also affecting MIF activity. Such assays include combining an ELISA type assay (or similar binding assay) with a MIF tautomerism assay or similar functional assay. As one of ordinary skill in the art may readily recognize, the exact assay employed is irrelevant, provided it is able to detect the ability of the compound of interest to bind MIF.
Varying concentrations of inhibitor analogs are added to LPS stimulated THP-1 cells and allowed to incubate overnight. The following day the amount of immunoreactive MIF detected is evaluated by ELISA.
The high throughput screening assay for MIF inhibitors is performed in a 96-well format using MIF produced by THP-1 cells and is performed as follows. MIF assays are performed by ELISA as indicated above. […] The amount of MIF is calculated by interpolation from an MIF standard curve.
(In general: ELISA stands for enzyme-linked immunosorbent assay.)

The target of data set [2] is T2, MIF (Homo sapiens, UniProt P14174).
T2 sequence (P14174 2-115 limits assumed): T1 sequence (P14174 2-115 limits assumed)
Briefly: Tautomerase assay (in vitro tautomerase inhibitory activity). The format is biochemical. To be noted: for MIF inhibitory activity, comparison of Compound 200 and Compound 203: in vitro activity, comparison of Table 2 (tautomerase; THP-1/MIF for 200 only); for in vitro tautomerase inhibitory activity: several different concentrations, FIG. 2 / FIG. 3. From the text: An alternative in vitro assay is designed to measure the ability of MIF to catalyze tautomerization of the D-isomer of dopachrome (see Rosengren et al., Mol. Med. 2:143-149, 1996; Winder et al., J. Cell Sci. 106:153-166, 1993; Aroca et al., Biochem. J. 277:393-397). Briefly, in this method, D-dopachrome is provided to MIF in the presence and absence of a candidate inhibitor and the ability to catalyze the tautomerization to 5,6-dihydroxyindole-2-carboxylic acid (DHICA) is monitored. However, use of methyl esters of D-dopachrome may be preferred in that a faster reaction rate is observed. Detection of the tautomerization can be performed by any one of a variety of standard methods.
In a similar assay, the ability of MIF to catalyze the tautomerization of phenylpyruvate may be tested (see Johnson et al., Biochem. 38(48):16024-16033, 1999). Briefly, in this method, typically ketonization of phenylpyruvate or (p-hydroxyphenyl)pyruvate is followed by spectroscopy. Further, product formation may be verified by treatment of these compounds with MIF and subsequent conversion to malate for ^1H NMR analysis.
The tautomerization reaction is carried out essentially as described by Rosengren et al., Mol. Med 2(1):143-149, 1996. D-dopachrome conversion to 5,6-dihydroxyindole-2-carboxylic acid is assessed. 1 ml sample cuvettes containing 0.42 mM substrate and 1.4 μg of MIF in a sample solution containing 0.1 mM EDTA and 10 mM sodium phosphate buffer, pH 6.0 are prepared and the rate of decrease in iminochrome absorbance is followed at 475 nm. L-dopachrome is employed as a control. In addition, the reaction products can be followed using an HPLC, utilizing a mobile phase including 20 mM KH2PO4 buffer (pH 4.0) and 15% methanol with a flow rate of 1.2 ml/min. Fluorimetric detection is followed at 295/345 nm.
Alternatively, the tautomerization reaction utilizing phenylpyruvate or (p-hydroxyphenyl)pyruvate is carried out essentially as described by Johnson et al., Biochem. 38:16024-16033, 1999. In this version, ketonization of phenylpyruvate is monitored at 288 nm (ε=17300 M^−1 cm^−1) and the ketonization of (p-hydroxyphenyl)pyruvate is monitored at 300 nm (ε=21600 M^−1 cm^−1). The assay mixture contains 50 mM Na2HPO4 buffer (1 mL, pH 6.5) and an aliquot of a solution of MIF sufficiently dilute (0.5-1.0 μL of a 2.3 mg/mL solution, final concentration of 93-186 nM) to yield an initial liner rate. The assay is initiated by the addition of a small quantity (1-3.3 μL) of either phenylpyruvate or (p-hydroxyphenyl)pyruvate from stock solutions made up in ethanol. The crystalline forms of phenylpyruvate and (p-hydroxyphenyl)pyruvate exist exclusively as the enol isomers (Larsen et al., Acta Chem. Scand. B 28:92-96, 1974).

Setting [3] is: average of the determinations, read-out: Average IC 50 (Tautomerase Assay).
The mark [4] stands for this setting: single determinations, range in brackets, read-out: Tautomerase Assay (Inhibitory Concentration (IC) of 50 μm).

“And” between values parts separate entries of the source, which are not always exact repeats. Identical values can stand only once. Like-named read-outs stand apart in the source and are kept apart here.

The melting point is the temperature of the solid-liquid transition. The compound `N#Cc1c(N2CCN(C(=O)c3cnccn3)CC2)c2ccccc2n(Cc2ccc(F)cc2)c1=O` [Compound 95, 1-(4-Fluoro-benzyl)-2-oxo-4-[4-(pyrazine-2-carbonyl)-piperazin-1-yl]-1,2-dihydro-quinoline-3-carbonitrile] came in with a melting point of 145 to 156 °C.

In turn, `N#Cc1c(N2CCN(C(=O)c3ccc4ccccc4n3)CC2)c2ccccc2n(Cc2ccc(F)cc2)c1=O` [Compound 96, 1-(4-Fluoro-benzyl)-2-oxo-4-[4-(quinoline-2-carbonyl)-piperazin-1-yl]-1,2-dihydro-quinoline-3-carbonitrile] returned a melting point of 144 to 157 °C.

`Cc1cc(C(=O)N2CCN(c3c(C#N)c(=O)n(Cc4ccc(F)cc4)c4ccccc34)CC2)no1` [Compound 97, 1-(4-Fluoro-benzyl)-4-[4-(5-methyl-isoxazole-3-carbonyl)-piperazin-1-yl]-2-oxo-1,2-dihydro-quinoline-3-carbonitrile] came in with a melting point of 130 to 137 °C.

`N#Cc1c(N2CCN(C(=O)C3CCCO3)CC2)c2ccccc2n(Cc2ccc(F)cc2)c1=O` (stereo not drawn) [Compound 98, 1-(4-Fluoro-benzyl)-2-oxo-4-[4-(tetrahydro-furan-2-carbonyl)-piperazin-1-yl]-1,2-dihydro-quinoline-3-carbonitrile] registered a melting point of 123 to 135 °C.

As for `N#Cc1c(N2CCN(C(=O)c3ccc4c(c3)OCO4)CC2)c2ccccc2n(Cc2ccc(F)cc2)c1=O` [Compound 99, 4-[4-(Benzo[1,3]dioxole-5-carbonyl)-piperazin-1-yl]-1-(4-fluoro-benzyl)-2-oxo-1,2-dihydro-quinoline-3-carbonitrile], the melting point lay in the range of 140 to 160 °C.

As for `N#Cc1c(N2CCN(C(=O)c3ccc(C(F)(F)F)cc3)CC2)c2ccccc2n(Cc2ccc(F)cc2)c1=O` [Compound 100, 1-(4-Fluoro-benzyl)-2-oxo-4-[4-(4-trifluoromethyl-benzoyl)-piperazin-1-yl]-1,2-dihydro-quinoline-3-carbonitrile], the melting point was in the range of 181 to 185 °C.

Compound `N#Cc1c(N2CCN(C(=O)c3c[nH]cn3)CC2)c2ccccc2n(Cc2ccc(F)cc2)c1=O` [Compound 101, 1-(4-Fluoro-benzyl)-4-[4-(1H-imidazole-4-carbonyl)-piperazin-1-yl]-2-oxo-1,2-dihydro-quinoline-3-carbonitrile] gave a melting point of 176 to 183 °C.

As for `N#Cc1c(N2CCN(C(=O)C3CCCS3)CC2)c2ccccc2n(Cc2ccc(F)cc2)c1=O` (stereo not drawn) [Compound 102, 1-(4-Fluoro-benzyl)-2-oxo-4-[4-(tetrahydro-thiophene-2-carbonyl)-piperazin-1-yl]-1,2-dihydro-quinoline-3-carbonitrile], the melting point fell in the range of 133 to 140 °C.

`Cn1c(=O)c(C#N)c(N2CCN(C(=O)c3cccs3)CC2)c2ccccc21` [Compound 200]: the IC50 in data set [1] (average of the determinations, read-out: Average IC 50 (THP-1/MIF Inhibition)) is 150 nM; in data set [2] (setting [3]), 320 nM; in data set [2] (setting [4]) it was 300 nM and 340 nM. The “MIF inhibitory activity in the THP-1 Cell Assay” value in data set [1] (several different concentrations, FIG. 1) is recorded as “exhibits MIF inhibitory activity”. The “MIF inhibitory activity, comparison of Compound 200 and Compound 203” value in data set [2] is reported as “satisfactory MIF inhibitory activity”. Moreover, in data set [2], the “in vitro tautomerase inhibitory activity” value is listed as “exhibits MIF inhibitory activity”.

`N#Cc1c(N2CCN(C(=O)c3cccs3)CC2)c2ccccc2n(Cc2ccc(F)cc2)c1=O` [Compound 203]: in data set [2] (setting [3]), the IC50 was found to be 98 nM. For the same compound, in data set [2], the “MIF inhibitory activity, comparison of Compound 200 and Compound 203” value is reported as “satisfactory MIF inhibitory activity”; the “in vitro tautomerase inhibitory activity” value is recorded as “exhibits MIF inhibitory activity”. Also, the IC50 in data set [2] (setting [4]) is 98 nM.

The record behind these values is patent publication US7312221B2, “Inhibitors of macrophage migration inhibitory factor and methods for identifying the same” (Avanir Pharmaceuticals, priority 2003, dated 2007).
